Assays:
primary rat hepatocytes = experiment: Measurement of glycogen synthesis in primary rat hepatocytes; format: cell-based; conditions: 10 mM glucose, fold increase over DMSO control; for fold induction at 10 µM: Rattus norvegicus, Hepatocyte, 3 h, 10 μM compound; for Fold increase in glycogen synthesis at 10 μM compound: 3 hours
Protocol: Primary hepatocytes are collected from male Wistar rats, and tested for viability by trypan blue exclusion. Primary hepatocytes cultures with viability greater than 95% are selected for the glycogen synthesis assay. The cells are seeded in a 48-well plate at a density of 200,000 cells/well in 250 μl Minimal Essential Medium (MEM) containing 10% foetal calf serum (FCS) and 1.7 μM insulin, and incubated for 4 hours at 37° C. to allow attachment. The medium is replaced with fresh MEM containing 10% FCS, 1.7 μM insulin and 10 nM dexamethasone, and the cells are incubated for 16 hours at 37° C. The medium is then replaced with fresh MEM (serum-free) containing 2 μCi/ml of D-[U^14C]-Glucose along with 10 μM of the compound in a final DMSO concentration of 0.1%. The final glucose concentration is brought to 10 mM by the addition of D-Glucose (MEM already contains 5 mM glucose). The cells are incubated for 3 hours at 37° C. The cells are washed twice with 150 mM NaCl, lysed with 0.1 N NaOH, and the lysate precipitated with 8% w/v trichloroacetic acid (TCA) and 1 mg/well unlabeled glycogen as carrier. Cell debris is pelleted by centrifugation, the supernatant is removed, and the glycogen is precipitated with 63% ethanol. After another round of centrifugation, the supernatant is removed, and the pellet containing the precipitated glycogen is dried overnight. De novo synthesized glycogen is estimated in a scintillation counter (MicroBeta Trilux, Perkin Elmer), and expressed as fold increase over DMSO control.
The protocol for the glycogen assay is based on the method described in “Biochem J. 1990 Feb. 15; 266(1): 91-102” with a few minor modifications. The protocol for isolation of primary rat hepatocytes is based on the method described in “Methods in Enzymology, Vol. III. pp 34-50. Ed. by S. P. Colowick and N. O. Kaplan. New York, Academic Press, 1957” with a few minor modifications.
Compounds described in formula (I), in concentration ranges from 1.0 nM to 500 μM, are tested in glycogen synthesis assay described above.

[1] = molecular target: T1, purified human recombinant GK (Homo sapiens, UniProt P35557); experiment: Glucokinase activity assay (coupled enzymatic GK/G6PD assay, NADH absorbance at 340 nm); format: biochemical; conditions: for EC50: EC50 of % change in S0.5 of glucokinase for glucose, sigmoidal fit, read-out: EC50 (with respect to % ΔS0.5); for Emax / % Emax (with respect to % ΔS0.5): Emax of % change in S0.5, vehicle S0.5 = 0%, 0 mM glucose = 100%; for Emax: read-out: % Emax (with respect to % ΔS0.5)
T1 sequence (P35557 1-465): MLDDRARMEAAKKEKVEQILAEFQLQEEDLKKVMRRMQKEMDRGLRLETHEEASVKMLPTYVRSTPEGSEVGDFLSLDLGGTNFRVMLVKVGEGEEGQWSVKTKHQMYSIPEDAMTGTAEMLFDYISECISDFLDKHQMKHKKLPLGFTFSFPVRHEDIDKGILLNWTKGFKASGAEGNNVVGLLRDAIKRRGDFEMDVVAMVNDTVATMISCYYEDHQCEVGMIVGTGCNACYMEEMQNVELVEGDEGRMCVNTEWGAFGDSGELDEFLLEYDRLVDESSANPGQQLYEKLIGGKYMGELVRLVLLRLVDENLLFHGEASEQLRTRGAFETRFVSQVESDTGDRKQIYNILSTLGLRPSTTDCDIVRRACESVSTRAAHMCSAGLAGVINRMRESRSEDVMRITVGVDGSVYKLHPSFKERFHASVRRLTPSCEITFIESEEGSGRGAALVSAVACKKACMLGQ
Source text: The glucokinase (GK) assay is a coupled enzymatic assay. GK catalyzes the first step of glycolysis, the conversion of glucose to glucose-6-phosphate (G6P) in the presence of ATP. G6P in turn is converted by glucose-6-phosphate dehydrogenase (G6PD) to 6-phosphogluconate, a process that requires NAD, resulting in NADH formation. Since the GK-catalyzed step is the rate-limiting step of this coupled enzymatic process, the rate of accumulation of 6-phosphogluconate and NADH is directly proportional to the rate of glucose phosphorylation by GK. The rate of the GK-catalyzed reaction can therefore be measured by monitoring the increase in NADH absorbance at 340 nm.
The assay is carried out according to the protocol outlined in Hariharan et al (1997), Diabetes 46: 11-16. Briefly, the test compounds are incubated in a reaction mix containing 25 mM HEPES (pH 7.2), 10 mM MgCl2, 100 mM KCl, 5 mM ATP, 2 mM DTT, 0.5 mM NAD, 1 U/ml Leuconostoc mesenteroides G6PD, 0.3 U/ml of purified human recombinant GK, and different concentrations of glucose. Enzymatic activity is calculated from the initial reaction velocity, measured from the change in NADH absorbance as a function of time.
Compounds described in formula (I), in concentration ranges from 1.0 nM to […] are tested in the purified human recombinant glucokinase assay described above.
A compound is considered to be a glucokinase activator if it, in its testable range of concentrations, yields a higher rate of glucose phosphorylation than in its absence at a particular glucose concentration, for example at 5 mM glucose.
Compounds of general formula (I) are tested in the in vitro GK enzymatic assay to monitor dose-dependent effect on glucokinase activation (in kinetic mode), as described above, at various glucose concentrations. The S0.5 of glucokinase for glucose at different concentration of each compound of interest is calculated from the following modified version of the Michaelis-Menten equation, V=Vmax[S]^n/(S0.5^n+[S]^n), where [S] is the glucose concentration and n is the Hill coefficient (taken as 1.7 to account for the sigmoidal kinetics of glucokinase with respect to glucose). The S0.5 is plotted against the log of the compound concentration. The change in the S0.5 of glucokinase (ΔS0.5) for glucose is calculated by subtracting the S0.5 at each concentration of the compound from the S0.5 in the vehicle control. The ΔS0.5 is then normalized to a percent scale, where the S0.5 in the vehicle control is set to 0% and 0 mM glucose is set to 100%. The % ΔS0.5 is then plotted against the log of the compound concentration. The EC50 and Emax of % change in S0.5 is obtained from the sigmoidal fit of the data. Detailed protocol has been described in our copending application no. WO 2008/104994 which is incorporated herein by reference. Characterization data of some representative glucokinase activators of the present disclosure, which are illustrative but not limiting, are given in table 1 below.

Compound | fold induction at 10 µM (primary rat hepatocytes) | EC50 [1] [µM] | Emax [1] [%] | Fold increase in glycogen synthesis at 10 μM compound (primary rat hepatocytes) [fold] | % Emax (with respect to % ΔS0.5) [1] [%]
O=C(Nc1nccs1)C(Oc1ccc(F)cc1F)c1ccc(S(=O)(=O)C2CCCC2)cc1 (stereo not drawn) [Example A10, 2-(4-Cyclopentanesulfonylphenyl)-2-(2,4-difluorophenoxy)-N-thiazol-2-yl-acetamide] | 4.3 | 0.11 | 95 |  | 
O=C(O)Cc1nc(NC(=O)C(Oc2ccc(F)cc2F)c2ccc(S(=O)(=O)C3CC3)cc2)sc1Cl (single isomer, unassigned; (+)) [Example F1, (+)-{5-Chloro-2-[2-(4-cyclopropanesulfonyl-phenyl)-2-(2,4-difluorophenoxy)acetyl-amino]thiazol-4-yl}-acetic acid] |  | 1.27 |  | 4.5 | 90
O=C(O)Cc1nc(NC(=O)C(Oc2ccc(F)cc2F)c2ccc(S(=O)(=O)C3CC3)cc2)sc1Cl (single isomer, unassigned; (-)) [Example E1, (−)-{5-Chloro-2-[2-(4-cyclopropanesulfonyl-phenyl)-2-(2,4-difluorophenoxy)acetyl-amino]thiazol-4-yl}acetic acid] | 8.1 | 1.55 | 95 |  | 
O=C(O)Cc1nc(NC(=O)C(Oc2ccc3[nH]ccc3c2)c2ccc(S(=O)(=O)C3CC3)cc2)sc1Cl (stereo not drawn) [Example B19, {5-Chloro-2-[2-(4-cyclopropanesulfonylphenyl)-2-(1H-indol-5-yloxy)acetylamino]thiazol-4-yl}acetic acid] | 3.3 | 3.3 | 95 |  | 
O=C(O)Cc1csc(NC(=O)C(Oc2ccc(F)cc2F)c2ccc(S(=O)(=O)C3CC3)cc2)n1 (single isomer, unassigned; (+)) [Example F3, (+)-{2-[2-(4-Cyclopropanesulfonylphenyl)-2-(2,4-difluorophenoxy)acetylamino]thiazol-4-yl}acetic acid] |  | 2.47 |  | 7.0 | 90
O=C(Nc1ncc(F)s1)C(Oc1ccc(F)cc1F)c1ccc(S(=O)(=O)C2CC2)cc1 (stereo not drawn) [Example A3, 2-(4-Cyclopropanesulfonylphenyl)-2-(2,4-difluorophenoxy)-N-(5-fluorothiazol-2-yl)-acetamide] | 2.9 | 0.2 | 95 |  | 
O=C(Nc1ncc(Oc2ccc(C(=O)N3CCC3)cc2)s1)C(OC1CCOCC1)c1ccc(S(=O)(=O)C2CC2)cc1 (stereo not drawn) [Example G6] | 6.2 | 0.11 | 90 |  | 
O=C(O)Cc1csc(NC(=O)C(Oc2ccc(F)cc2F)c2ccc(S(=O)(=O)C3CCCCC3)cc2)n1 (stereo not drawn) [Example B16, {2-[2-(4-Cyclohexanesulfonylphenyl)-2-(2,4-difluorophenoxy)acetylamino]-thiazol-4-yl}acetic acid] | 5.5 | 1 | 90 |  | 
CC(=O)Nc1cccc(OC(C(=O)Nc2nc(CC(=O)O)c(Cl)s2)c2ccc(S(=O)(=O)C3CC3)cc2)c1 (stereo not drawn) [Example B20, {2-[2-(3-Acetylaminophenoxy)-2-(4-cyclopropanesulfonylphenyl)acetylamino]-5-chloro-thiazol-4-yl}acetic acid] | 6.8 | 6.8 | 90 |  | 
O=C(Nc1nc2cccnc2s1)C(OC1CCOCC1)c1ccc(S(=O)(=O)C2CC2)cc1 (single isomer, unassigned; (-)) [Example H10A, (−)2-(4-Cyclopropanesulfonyl-phenyl)-2-(tetrahydro-pyran-4-yloxy)-N-thiazolo[5,4-b]pyridin-2-yl-acetamide] | 4.1 | 0.15 | 94 |  | 
COc1ccc2nc(NC(=O)C(OC3CCOCC3)c3ccc(S(=O)(=O)C4CC4)cc3)sc2n1 (single isomer, unassigned; (+)) [Example H12A, (+)2-(4-Cyclopropanesulfonyl-phenyl)-N-(5-methoxy-thiazolo[5,4-b]pyridin-2-yl)-2-(tetrahydro-pyran-4-yloxy)-Acetamide] | 5 |  |  |  | 
Cc1csc(NC(=O)C(Oc2ccc(F)cc2F)c2ccc(S(=O)(=O)C3CC3)cc2)n1 (stereo not drawn) [Example A15, 2-(4-Cyclopropanesulfonylphenyl)-2-(2,4-difluorophenoxy)-N-(4-methyl-thiazol-2-yl)acetamide] | 3.7 |  |  |  | 
COc1cnc(NC(=O)C(Oc2ccc(F)cc2F)c2ccc(S(=O)(=O)C3CC3)cc2)s1 (stereo not drawn) [Example A75, 2-(4-Cyclopropanesulfonyl-phenyl)-2-(2,4-difluoro-phenoxy)-N-(5-methoxy-thiazol-2-yl)-acetamide] | 7.1 | 0.076 | 93 |  | 
O=C(O)Cc1nc(NC(=O)C(Oc2ccc(F)cc2F)c2ccc(S(=O)(=O)C3CCCC3)cc2)sc1Cl (single isomer, unassigned; (+)) [Example F2, (+)-{5-Chloro-2-[2-(4-cyclopentanesulfonyl-phenyl)-2-(2,4-difluorophenoxy)acety-lamino]thiazol-4-yl}acetic acid] |  | 0.67 |  | 7.2 | 95
O=C(O)c1cccc(Oc2cnc(NC(=O)C(OC3CCOCC3)c3ccc(S(=O)(=O)C4CC4)cc3)s2)c1 (stereo not drawn) [Example B92, 3-{2-[2-(4-Cyclopropanesulfonyl-phenyl)-2-(tetrahydro-pyran-4-yloxy)-acetylamino]-thiazol-5-yloxy}-benzoic acid] | 7.8 | 0.17 | 91 |  | 
O=C(O)c1ccc(Oc2cnc(NC(=O)C(OC3CCOCC3)c3ccc(S(=O)(=O)C4CC4)cc3)s2)cc1 (single isomer, unassigned; (+)) [Example H7A, (+) 4-{2-[2-(4-Cyclopropanesulfonyl-phenyl)-2-(tetrahydro-pyran-4-yloxy)-acetylamino]-thiazol-5-yloxy}-benzoic acid] | 7.7 |  |  |  | 

From patent US8501955B2, “Acetamide derivatives as glucokinase activators, their process and medicinal application” (Advinus Therapeutics Private Limited, priority 2007, dated 2013)
